Reference: patent US4778801A, “Isoindolinone derivatives, production and use thereof” (Takeda Chemical Industries, Ltd., priority 1984, dated 1988)

Legend:
benzodiazepine receptors = assay: specific binding to benzodiazepine receptors, [3H]-diazepam displacement; conditions: [3H]diazepam 2 nM, pH 7.4, 4° C., 20 minutes
Procedure: The compounds (I) according to the invention were tested for their affinity for benzodiazepine receptors using radioactive [^3 H]-diazepam.
The assay for specific binding to benzodiazepine receptors was performed according to the method described in the literature (Nature, 266, 732 (1977); European J. Pharmacol., 48, 263 (1978)). Thus, a crude mitochondrial fraction obtained from the cerebral cortex of SD strain male rats aged 9 to 10 weeks was suspended in 50 mM Tris-HCl buffer (pH 7.4), followed by addition of the test drug at several concentration levels and of [^3 H]diazepam (final concentration 2 nM). Each suspension was incubated at 4° C. for 20 minutes and then filtered through a Whatman GF/B glassfiber filter, and the radioactivity of [^3 H]diazepam on the filter was measured with a liquid scintillation counter. In this manner, the IC50 value, namely the concentration of the test drug at which the [^3 H]diazepam binding was inhibited by 50%, was determined.

male rat (SD/JCL) = assay: antianxiety activity, anticonflict test (Vogel et al.); assay type: in vivo; conditions: po; orally administered, male rat, 30, 60 or 180 minutes after administration; read-out: Antianxiety activity MED
Procedure: The antianxiety activity measurement was performed in accordance with Vogel et al. [Psychopharmacologia, 21, 1 (1970)] as follows: An apparatus comprising a large clear box with a stainless steel grid floor and a smaller opaque dark box provided with a drinking tube was arranged such that a rat placed therein could receive, on the sole, electric shocks through the grid floor following each twentieth lick. The test compound was orally administered to each male rat (SD/JCL) deprived of water for 48 hours prior to the test, which rat was then, 30, 60 or 180 minutes after administration, placed in the apparatus mentioned above and the number of licks was recorded over 3 minutes. The increase in the number of licks as compared with a physiological saline group was determined and taken as a measure of antianxiety potency, and the minimum effective dose determined accordingly.

rats = assay: muscle relaxant activity, rotating rod; assay type: in vivo; conditions: Rattus norvegicus, 1 min, 50% of rats fall off within 1 minute
Procedure: Groups of 6 rats were used. The rats were placed on a rotating rod with a diameter of 3.5 cm. The rod rotated with a speed of 8 revolutions per minute. […] The dose, ED50, of the test compound as required to make 50% of the rats fall off the rod was calculated [J. Am. Pharmaceutical Association, 46, 208 (1957)].

mice = assay: sleep-inducing activity, potentiation of pentobarbital sleep; assay type: in vivo; conditions: Mus musculus, oral, 30 minutes before pentobarbital 25 mg/kg i.p.
Procedure: Mice, in groups of eight, were orally administered the test compound and, 30 minutes later, intraperitoneally administered 25 mg/kg of pentobarbital. The loss of righting reflex which lasted for 2 minutes or longer during the 30-minute period following pentobarbital administration was taken as an indication of sleep potentiation. The dose, ED50, of the test compound as required to achieve sleep potentiation in 50% of mice was calculated.

COc1ccc(N2C(=O)c3ccc(Cl)cc3C2CC(=O)N2CCC3(CC2)OCCO3)cc1 (centres unmarked)
IC50 (benzodiazepine receptors): 8.71 nM

O=C(CC1c2ccccc2C(=O)N1c1ccc2ccc(Cl)nc2n1)N1CCC(O)CC1 (centres unmarked) [drawing 41]
minimal effective dose (male rat (SD/JCL)): > 30 mg/kg | ED50 (rats): > 80 mg/kg | ED50 (mice): 40.2 mg/kg

O=C(CC1c2ccccc2C(=O)N1c1ccc2ccc(Cl)nc2n1)N1CCC2(CC1)OCCCO2 (centres unmarked)
IC50 (benzodiazepine receptors): 4.9 nM

O=C(CC1c2ccccc2C(=O)N1c1ccc2ccc(Cl)nc2n1)N1CCC2(CC1)OCCO2 (centres unmarked) [drawing 36]
minimal effective dose (male rat (SD/JCL)): 5 mg/kg | ED50 (rats): > 80 mg/kg | ED50 (mice): > 50 mg/kg

COc1ccc(N2C(=O)c3ccc([N+](=O)[O-])cc3C2CC(=O)N2CCC(=NO)CC2)cc1 (centres unmarked)
IC50 (benzodiazepine receptors): 7.94 nM

COc1ccc(N2C(=O)c3ccc(Cl)cc3C2CC(=O)N2CCC(=NO)CC2)cc1 (centres unmarked)
IC50 (benzodiazepine receptors): 3.47 nM

CC(=O)OC1CCN(C(=O)CC2c3ccccc3C(=O)N2c2ccc3ccc(Cl)nc3n2)CC1 (centres unmarked)
IC50 (benzodiazepine receptors): 0.501 nM

COc1ccc(N2C(=O)c3ccc([N+](=O)[O-])cc3C2CC(=O)N2CCC(=O)CC2)cc1 (centres unmarked)
IC50 (benzodiazepine receptors): 6.16 nM

O=C(CC1c2ccccc2C(=O)N1c1ccc2ccc(Cl)nc2n1)N1CCC(=NO)CC1 (centres unmarked)
IC50 (benzodiazepine receptors): 0.645 nM

O=C(CC1c2ccccc2C(=O)N1c1ccc2ccc(Cl)nc2n1)N1CCC2(CC1)SCCS2 (centres unmarked)
IC50 (benzodiazepine receptors): 1.23 nM

O=C(CC1c2ccccc2C(=O)N1c1ccc2ccc(Cl)nc2n1)N1CCC2(CC1)SCCCS2 (centres unmarked)
IC50 (benzodiazepine receptors): 0.562 nM

COC1(OC)CCN(C(=O)CC2c3ccccc3C(=O)N2c2ccc3ccc(Cl)nc3n2)CC1 (centres unmarked) [drawing 19]
IC50 (benzodiazepine receptors): 1.29 nM

O=C(CC1c2ccccc2C(=O)N1c1ccc2ccc(Cl)nc2n1)N1CCC(O)CC1 (centres unmarked) [drawing 34]
IC50 (benzodiazepine receptors): 0.794 nM

O=C1CCN(C(=O)CC2c3ccccc3C(=O)N2c2ccc3ccc(Cl)nc3n2)CC1 (centres unmarked) [drawing 38]
minimal effective dose (male rat (SD/JCL)): 20 mg/kg | ED50 (rats): > 80 mg/kg | ED50 (mice): 24.3 mg/kg

O=C1CCN(C(=O)CC2c3ccccc3C(=O)N2c2ccc3ccc(Cl)nc3n2)CC1 (centres unmarked) [drawing 16]
IC50 (benzodiazepine receptors): 0.537 nM

COc1ccc(N2C(=O)c3ccc(Cl)cc3C2CC(=O)N2CCC(=O)CC2)cc1 (centres unmarked)
IC50 (benzodiazepine receptors): 2.4 nM

O=C(CC1c2ccccc2C(=O)N1c1ccc2ccc(Cl)nc2n1)N1CCC2(CC1)OCCO2 (centres unmarked) [drawing 17]
IC50 (benzodiazepine receptors): 0.38 nM

CCC(=O)OC1CCN(C(=O)CC2c3ccccc3C(=O)N2c2ccc3ccc(Cl)nc3n2)CC1 (centres unmarked)
IC50 (benzodiazepine receptors): 1 nM

COc1ccc(N2C(=O)c3ccc([N+](=O)[O-])cc3C2CC(=O)N2CCC3(CC2)OCCO3)cc1 (centres unmarked)
IC50 (benzodiazepine receptors): 21.9 nM

CC1(C)COC2(CCN(C(=O)CC3c4ccccc4C(=O)N3c3ccc4ccc(Cl)nc4n3)CC2)OC1 (centres unmarked)
IC50 (benzodiazepine receptors): 2.4 nM

COC1(OC)CCN(C(=O)CC2c3ccccc3C(=O)N2c2ccc3ccc(Cl)nc3n2)CC1 (centres unmarked) [drawing 39]
minimal effective dose (male rat (SD/JCL)): < 20 mg/kg | ED50 (rats): > 40 mg/kg | ED50 (mice): ~50 mg/kg
